Source: patent publication US20250289789A1, “REVERSIBLE LYSINE COVALENT MODIFIERS OF CDK2 AND USES THEREOF” (Terremoto Biosciences, Inc., priority 2023, published 2025)
Where two headings read alike, the source gives them in different places.

What was measured:
Format in all cases: cell-based
[1] = target: T1, CDK2-NanoLuc fusion with CCNE1 in 293T or 293 cells (Homo sapiens, UniProt P24941); assay: NanoBRET Target Engagement (TE) Intracellular Kinase Assay, CDK2/CCNE1; settings: 2-hour incubation
T1 construct: host or cells: 293T (ATCC CRL-3216) or 293 (ATCC CRL-1573)

[2] = system: Phospho-Rb Ser807/811 in OVCAR3 cells; assay: OVCAR3 Phospho-Rb Ser807/811 HTRF assay; settings: Homo sapiens, OVCAR3 cells, Phospho-Rb Ser807/811 HTRF, 1 hour incubation, read-out: pRb-OVCAR3 IC50
Description: Cells were trypsinized and resuspended in 1 mM hydroxyurea (Sigma; H8627), 90% RPMI and 10% fetal bovine serum. […] Dose response curve normalized to DMSO control was plotted using four-parameter logistic model for IC50 calculation.

[3] = target: T2, CDK1-NanoLuc fusion with CCNB1 in 293T or 293 cells (Homo sapiens, UniProt P06493); assay: NanoBRET Target Engagement (TE) Intracellular Kinase Assay, CDK1/CCNB1; settings: NanoBRET TE intracellular kinase assay, 2-hour incubation, read-out: NanoBRET-CDK1/B1 IC50
T2 construct: host or cells: 293T (ATCC CRL-3216) or 293 (ATCC CRL-1573)
T2 sequence (P06493 whole entry, the tested form may be a part): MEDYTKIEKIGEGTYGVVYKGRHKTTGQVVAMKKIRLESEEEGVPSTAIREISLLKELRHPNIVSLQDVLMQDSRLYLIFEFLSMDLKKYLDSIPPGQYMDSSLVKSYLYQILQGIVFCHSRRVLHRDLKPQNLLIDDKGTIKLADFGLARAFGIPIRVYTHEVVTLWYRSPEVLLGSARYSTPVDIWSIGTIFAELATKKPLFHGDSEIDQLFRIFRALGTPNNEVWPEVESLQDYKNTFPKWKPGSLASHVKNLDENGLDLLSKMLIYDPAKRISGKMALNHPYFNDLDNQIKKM
T2 sequence (P14635 whole entry partner, the tested form may be a part): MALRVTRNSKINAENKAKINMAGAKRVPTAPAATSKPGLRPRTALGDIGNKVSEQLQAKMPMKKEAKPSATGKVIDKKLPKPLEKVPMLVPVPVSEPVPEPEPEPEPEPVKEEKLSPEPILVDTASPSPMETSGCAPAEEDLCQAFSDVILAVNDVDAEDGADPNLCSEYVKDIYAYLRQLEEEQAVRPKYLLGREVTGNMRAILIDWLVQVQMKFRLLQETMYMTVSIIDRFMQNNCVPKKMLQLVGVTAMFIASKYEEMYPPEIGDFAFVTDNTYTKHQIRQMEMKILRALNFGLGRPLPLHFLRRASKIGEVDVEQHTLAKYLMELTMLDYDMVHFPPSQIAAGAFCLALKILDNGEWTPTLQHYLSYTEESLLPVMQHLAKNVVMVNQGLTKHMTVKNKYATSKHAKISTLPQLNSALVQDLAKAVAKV
Description: Inhibitory effects of compounds were measured in NanoBRET TE Intracellular Kinase Assay. 293T (ATCC; CRL-3216) or 293 (ATCC; CRL-1573) cell lines were maintained in 90% DMEM and 10% fetal bovine serum at 37° C., 5% CO2, and 95% relative humidity. Cells were trypsinized and resuspended in assay media (99% Opti-MEM I Reduced Serum Medium, no phenol red, and 1% fetal bovine serum). Cells were co-transfected with 1 μg/mL of CDK-NanoLuc Fusion Vector (Promega; NV2701 for CDK1, NV2781 for CDK2, NV2811 for CDK4, NV2841 for CDK6) and 1 μg/mL of the corresponding Cyclin Expression Vector (Promega; NV2601 for CCNB1, NV2641 for CCNE1, NV2621 for CCND1, NV2631 for CCND3) using FuGENE HD Transfection Reagent (Promega; E2311). 40 uL/well of cells with transfection mixture were seeded in 384-well plates at 1.25×10^5 to 2×10^5 cells/mL and incubated for 24 hours at 37° C., 5% CO2, and 95% relative humidity. On the next day, 100 nL of 100 μM NanoBRET Tracer K-10 (Promega; N2640) and 40 nL of 1000× test compounds prepared in DMSO were added to the cells in each well of 384-well plates for a 2-hour incubation at 37° C., 5% CO2, and 95% relative humidity. 20 uL/well of 3× Intracellular TE Nano-Glo Substrate/Inhibitor (Promega; N2162) were added to 384-well plates and incubated for 3 minutes at room temperature. NanoBRET signals (donor emission wavelength at 450 nm, acceptor emission wavelength at 610 nm) were measured using Envision plate reader (PerkinElmer). NanoBRET ratio was calculated by: BRET Ratio=raw signal for acceptor/raw signal for donor. Dose response curve normalized to DMSO control was plotted using four-parameter logistic model for IC50 calculation.

[4] = target: T3, CDK4-NanoLuc fusion with CCND1 in 293T or 293 cells (Homo sapiens, UniProt P11802); assay: NanoBRET Target Engagement (TE) Intracellular Kinase Assay, CDK4/CCND1; settings: NanoBRET TE intracellular kinase assay, 2-hour incubation, read-out: NanoBRET-CDK4/D1 IC50
T3 construct: host or cells: 293T (ATCC CRL-3216) or 293 (ATCC CRL-1573)
T3 sequence (P11802 whole entry, the tested form may be a part): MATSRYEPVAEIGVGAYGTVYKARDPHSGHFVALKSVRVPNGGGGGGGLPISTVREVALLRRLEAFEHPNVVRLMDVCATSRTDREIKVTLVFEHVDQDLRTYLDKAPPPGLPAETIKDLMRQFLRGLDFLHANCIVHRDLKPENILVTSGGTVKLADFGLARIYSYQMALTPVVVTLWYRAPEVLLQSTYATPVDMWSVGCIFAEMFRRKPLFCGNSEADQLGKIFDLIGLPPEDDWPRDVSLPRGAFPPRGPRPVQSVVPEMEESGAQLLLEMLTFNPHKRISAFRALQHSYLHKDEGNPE
T3 sequence (P24385 whole entry partner, the tested form may be a part): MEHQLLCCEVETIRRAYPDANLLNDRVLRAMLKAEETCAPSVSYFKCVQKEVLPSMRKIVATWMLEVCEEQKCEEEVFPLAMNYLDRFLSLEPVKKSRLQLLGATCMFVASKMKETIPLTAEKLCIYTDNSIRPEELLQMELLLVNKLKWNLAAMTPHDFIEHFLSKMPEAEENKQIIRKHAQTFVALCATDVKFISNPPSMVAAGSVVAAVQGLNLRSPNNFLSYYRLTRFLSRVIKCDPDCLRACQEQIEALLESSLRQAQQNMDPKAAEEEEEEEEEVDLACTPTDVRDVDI

[5] = NanoBRET TE intracellular kinase assay, read-out: NanoBRET-CDK2/E1 IC50

IC50 [1, 5] [nM] | IC50 ([2]; OVCAR-3, 1 h) [nM] | IC50 [3] [nM] | IC50 [4] [nM] | SMILES | IC50 ([1]; NanoBRET-CDK2/E1 IC50, NanoBRET TE intracellular kinase assay) [nM] | IC50 ([2]; OVCAR-3) [nM]
3.73 | 212 | 32.5 | > 10000 | O=Cc1c(O)cccc1OCC(=O)Nc1cc([C@H]2CC[C@@H](OC(=O)NC3CC3)C2)[nH]n1 [Compound 86, (1R,3S)-3-(3-(2-(2-formyl-3-hydroxyphenoxy)acetamido)-1H-pyrazol-5-yl)cyclopentyl cyclopropylcarbamate] |  | 
18.7 | 3760 | 516 | 4880 | CC(C)NC(=O)O[C@@H]1CC[C@H](c2cc(Nc3cc(COc4cccc(O)c4C=O)ccn3)n[nH]2)C1 [Compound 24, (1R,3S)-3-(3-((4-((2-formyl-3-hydroxyphenoxy)methyl)pyridin-2-yl)amino)-1H-pyrazol-5-yl)cyclopentyl isopropylcarbamate] |  | 
2.64 | 93.6 | 28.9 | > 10000 | COc1cc(O)c(C=O)c(OCC(=O)Nc2cc([C@H]3CC[C@@H](OC(=O)N4CCCO4)C3)[nH]n2)c1 [Compound 224] |  | 
9.87 | 41.8 | 21.2 | 7910 | COc1cc(O)c(C=O)c(OCC(=O)Nc2cc([C@H]3CC[C@@H](OC(=O)NCCC#N)C3)[nH]n2)c1 [Compound 208] |  | 
3.47 | 227 | 42 | > 10000 | O=Cc1c(O)cccc1OCC(=O)Nc1cc([C@H]2CC[C@@H](OC(=O)NC3CCCC3)C2)[nH]n1 [Compound 88, (1R,3S)-3-(3-(2-(2-formyl-3-hydroxyphenoxy)acetamido)-1H-pyrazol-5-yl)cyclopentyl cyclopentylcarbamate] |  | 
5.5 | 176 | 10.6 | 2680 | CC(C)NC(=O)O[C@@H]1CC[C@H](c2cc(NC(=O)c3cc(-c4cc(F)cc(O)c4C=O)nn3C)n[nH]2)C1 [Compound 42, (1R,3S)-3-{5-[5-(5-fluoro-2-formyl-3-hydroxyphenyl)-2-methylpyrazole-3-amido]-2H-pyrazol-3-yl}cyclopentyl N-isopropylcarbamate; trifluoroacetic acid] |  | 
5.32 | 272 | 20.5 | 3060 | CC(C)NC(=O)O[C@@H]1CC[C@H](c2cc(NC(=O)c3cc(-c4cccc(NS(C)(=O)=O)c4C=O)nn3C)n[nH]2)C1 [Compound 41, (1R,3S)-3-{5-[5-(2-formyl-3-methanesulfonamidophenyl)-2-methylpyrazole-3-amido]-2H-pyrazol-3-yl}cyclopentyl N-isopropylcarbamate; trifluoroacetic acid] |  | 
12 | 3340 | 1490 | > 10000 | CC(C)NC(=O)O[C@@H]1CC[C@H](c2cc(NC(=O)COc3cccc(-c4nccs4)c3C=O)n[nH]2)C1 [Compound 98, (1R,3S)-3-(3-(2-(2-formyl-3-(thiazol-2-yl)phenoxy)acetamido)-1H-pyrazol-5-yl)cyclopentyl isopropylcarbamate] |  | 
2.9 | 27.7 | 7.64 | 5360 | CCCNC(=O)O[C@H]1C[C@@H](c2cc(NC(=O)COc3cc(OC)cc(OC)c3C=O)n[nH]2)C1 [Compound 110, (1s,3s)-3-(3-(2-(2-formyl-3,5-dimethoxyphenoxy)acetamido)-1H-pyrazol-5-yl)cyclobutyl propylcarbamate] |  | 
16.7 | 1190 | 142 | > 10000 | CC(C)NC(=O)O[C@@H]1CC[C@H](c2cc(NC(=O)N3CC=C(c4cccc(O)c4C=O)C3)n[nH]2)C1 [Compound 78, (1R,3S)-3-(3-(3-(2-formyl-3-hydroxyphenyl)-2,5-dihydro-1H-pyrrole-1-carboxamido)-1H-pyrazol-5-yl)cyclopentyl isopropylcarbamate] |  | 
1.01 | 65.8 | 2.18 | 2350 | COc1cccc(OCC(=O)Nc2cc([C@H]3CC[C@@H](OC(=O)NC4(C)CCC4)C3)[nH]n2)c1C=O [Compound 105, (1R,3S)-3-{5-[2-(2-formyl-3-methoxyphenoxy)acetamido]-2H-pyrazol-3-yl}cyclopentyl N-(1-methylcyclobutyl)carbamate; trifluoroacetic acid] |  | 
10.5 | 915 | 147 | 1210 | CC(C)NC(=O)O[C@@H]1CC[C@H](c2cc(NC(=O)c3cc(C(=O)Nc4cccc(O)c4C=O)nn3C)n[nH]2)C1 [Compound 20, (1R,3S)-3-(5-{5-[(2-formyl-3-hydroxyphenyl)carbamoyl]-2-methylpyrazole-3-amido}-2H-pyrazol-3-yl)cyclopentyl N-isopropylcarbamate; trifluoroacetic acid] |  | 
5.01 | 309 | 66 | 6390 | COc1cc(O)c(C=O)c(Oc2ccnc(Nc3cc([C@H]4CC[C@@H](OC(=O)NC(C)C)C4)[nH]n3)c2)c1 [Compound 76, (1R,3S)-3-(3-((4-(2-formyl-3-hydroxy-5-methoxyphenoxy) 476yridine-2-yl)amino)-1H-pyrazol-5-yl)cyclopentyl isopropylcarbamate] |  | 
7.13 | 601 | 129 | 1820 | CC(C)NC(=O)O[C@@H]1CC[C@H](c2cc(NC(=O)CSc3cccc(O)c3C=O)n[nH]2)C1 [Compound 96, (1R,3S)-3-(5-{2-[(2-formyl-3-hydroxyphenyl)sulfanyl]acetamido}-2H-pyrazol-3-yl)cyclopentyl N-isopropylcarbamate; trifluoroacetic acid] |  | 
9.48 | 129 | 32.8 | 255 | CC(C)NC(=O)O[C@@H]1CC[C@H](c2cc(NC(=O)c3ccc(O)c(C=O)c3)n[nH]2)C1 [Compound 3, (1R,3S)-3-(3-(3-formyl-4-hydroxybenzamido)-1H-pyrazol-5-yl)cyclopentyl isopropylcarbamate trifluoroacetic acid] |  | 
16.3 | 2400 | 278 | 3840 | CC(C)NC(=O)O[C@@H]1CC[C@H](c2cc(NC(=O)C3CCN(c4cccc(O)c4C=O)CC3)n[nH]2)C1 [Compound 92, (1R,3S)-3-{5-[1-(2-formyl-3-hydroxyphenyl)piperidine-4-amido]-2H-pyrazol-3-yl}cyclopentyl N-isopropylcarbamate] |  | 
21.9 | 1430 | 69.9 | > 10000 | CC(C)NC(=O)O[C@@H]1CC[C@H](c2cc(NC(=O)c3cnc(-c4cccc(O)c4C=O)o3)n[nH]2)C1 [Compound 55, (1R,3S)-3-{5-[2-(2-formyl-3-hydroxyphenyl)-1,3-oxazole-5-amido]-2H-pyrazol-3-yl}cyclopentyl N-isopropylcarbamat] |  | 
4.54 | 34.6 | 12.2 | > 9510 | COc1cc(O)c(C=O)c(OCC(=O)Nc2cc([C@H]3CC[C@@H](OC(=O)N4C[C@@H]5C[C@H]4CO5)C3)[nH]n2)c1 [Compound 204] |  | 

SMILES | IC50 [1, 5] [nM] | IC50 ([2]; OVCAR-3, 1 h) [nM] | IC50 [3] [nM] | IC50 [4] [nM] | IC50 ([1]; NanoBRET-CDK2/E1 IC50, NanoBRET TE intracellular kinase assay) [nM] | IC50 ([2]; OVCAR-3) [nM]
C[C@@H]1CCCN1C(=O)O[C@@H]1CC[C@H](c2cc(NC(=O)COc3cccc(O)c3C=O)n[nH]2)C1 [Compound 101, (1R,3S)-3-{5-[2-(2-formyl-3-hydroxyphenoxy)acetamido]-2H-pyrazol-3-yl}cyclopentyl (2R)-2-methylpyrrolidine-1-carboxylate; trifluoro-acetic acid] |  |  | 20.3 | 9200 | 5.79 | 188
COc1cc(O)c(C=O)c(OCC(=O)Nc2cc([C@H]3CC[C@@H](OC(=O)N4C5COCC4C5)C3)[nH]n2)c1 [Compound 231, (1R,3S)-3-{5-[2-(2-formyl-3-hydroxy-5-methoxyphenoxy)acetamido]-2H-pyrazol-3-yl}cyclopentyl 3-oxa-6-azabicyclo[3.1.1]heptane-6-carboxylate] | 3.2 | 18.5 | < 2.64 | 1430 |  | 
